Experimental data: patent publication US10231954B2, “Neurodegenerative therapies” (LYTIX BIOPHARMA AS, priority 2014, dated 2019)

Legend:
Type in all cases: biochemical
MKK6 = target: T1, MKK6 (Homo sapiens, UniProt P52564); assay: Kinase profiling MKK6; settings: 100 micromolar inhibitor concentration, 100 is no change; for remaining activity at 100 µM: read-out: residual kinase activity, MKK6
T1 sequence (P52564 1-334): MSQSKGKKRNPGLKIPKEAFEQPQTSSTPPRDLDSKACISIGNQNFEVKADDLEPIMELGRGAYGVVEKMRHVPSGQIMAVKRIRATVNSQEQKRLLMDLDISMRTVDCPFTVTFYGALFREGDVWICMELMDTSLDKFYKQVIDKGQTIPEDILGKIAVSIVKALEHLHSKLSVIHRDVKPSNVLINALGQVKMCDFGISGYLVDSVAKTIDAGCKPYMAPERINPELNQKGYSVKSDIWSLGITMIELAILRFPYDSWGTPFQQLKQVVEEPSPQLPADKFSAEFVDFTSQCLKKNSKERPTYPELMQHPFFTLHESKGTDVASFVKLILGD
Source text: (§1) Any value less that 25 is considered to be highly significant inhibition.

p38a MAPK = p38a MAPK (Homo sapiens, UniProt Q16539); assay: Kinase profiling p38a MAPK; settings: 100 micromolar inhibitor concentration, 100 is no change; for remaining activity at 100 µM: read-out: residual kinase activity, p38a MAPK
Source text: as §1

RSK1 = RSK1 (Homo sapiens, UniProt Q15418); assay: Kinase profiling RSK1; settings: 100 micromolar inhibitor concentration, 100 is no change; for remaining activity at 100 µM: read-out: residual kinase activity, RSK1
Sequence of RSK1 (Q15418 whole entry, species assumed): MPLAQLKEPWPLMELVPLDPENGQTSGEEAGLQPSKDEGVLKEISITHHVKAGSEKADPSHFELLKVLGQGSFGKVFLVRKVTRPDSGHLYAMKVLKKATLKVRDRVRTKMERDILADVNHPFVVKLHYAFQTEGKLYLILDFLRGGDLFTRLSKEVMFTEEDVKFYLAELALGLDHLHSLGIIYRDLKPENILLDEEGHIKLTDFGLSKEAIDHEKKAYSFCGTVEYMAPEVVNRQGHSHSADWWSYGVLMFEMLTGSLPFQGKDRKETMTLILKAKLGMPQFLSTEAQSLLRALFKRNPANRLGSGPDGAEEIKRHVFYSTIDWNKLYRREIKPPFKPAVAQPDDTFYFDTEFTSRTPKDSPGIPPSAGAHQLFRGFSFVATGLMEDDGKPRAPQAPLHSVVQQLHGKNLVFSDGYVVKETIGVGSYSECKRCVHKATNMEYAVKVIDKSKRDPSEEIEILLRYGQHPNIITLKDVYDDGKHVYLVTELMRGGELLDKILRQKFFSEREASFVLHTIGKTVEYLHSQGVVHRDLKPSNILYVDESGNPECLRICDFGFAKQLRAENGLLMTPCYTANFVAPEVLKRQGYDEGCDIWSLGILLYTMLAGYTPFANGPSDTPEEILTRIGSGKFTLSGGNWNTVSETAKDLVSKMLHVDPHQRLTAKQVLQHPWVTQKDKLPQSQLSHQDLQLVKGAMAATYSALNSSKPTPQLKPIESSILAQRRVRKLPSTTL
Source text: as §1

PKBa = PKBa (Homo sapiens, UniProt P31749); assay: Kinase profiling PKBa; settings: for residual kinase activity, PKBa: 100 micromolar inhibitor concentration, 100 is no change; for remaining activity at 100 µM: read-out: residual kinase activity, PKBa
Source text: as §1

S6K1 = S6K1 (Homo sapiens, UniProt P23443); assay: Kinase profiling S6K1; settings: 100 micromolar inhibitor concentration, 100 is no change; for remaining activity at 100 µM: read-out: residual kinase activity, S6K1
Source text: as §1

PKA = PKA (Homo sapiens, UniProt P17612); assay: Kinase profiling PKA; settings: 100 micromolar inhibitor concentration, 100 is no change; for remaining activity at 100 µM: read-out: residual kinase activity, PKA
Source text: as §1

STK33 = STK33 (Homo sapiens, UniProt Q9BYT3); assay: Kinase profiling STK33; settings: 100 micromolar inhibitor concentration, 100 is no change; for remaining activity at 100 µM: read-out: residual kinase activity, STK33
Source text: as §1

CAMKKb = CAMKKb (Homo sapiens, UniProt Q96RR4); assay: Kinase profiling CAMKKb; settings: 100 micromolar inhibitor concentration, 100 is no change; for remaining activity at 100 µM: read-out: residual kinase activity, CAMKKb
Source text: as §1

CAMK1 = CAMK1 (Homo sapiens, UniProt Q14012); assay: Kinase profiling CAMK1; settings: 100 micromolar inhibitor concentration, 100 is no change; for remaining activity at 100 µM: read-out: residual kinase activity, CAMK1
Sequence of CAMK1 (Q14012 whole entry, species assumed): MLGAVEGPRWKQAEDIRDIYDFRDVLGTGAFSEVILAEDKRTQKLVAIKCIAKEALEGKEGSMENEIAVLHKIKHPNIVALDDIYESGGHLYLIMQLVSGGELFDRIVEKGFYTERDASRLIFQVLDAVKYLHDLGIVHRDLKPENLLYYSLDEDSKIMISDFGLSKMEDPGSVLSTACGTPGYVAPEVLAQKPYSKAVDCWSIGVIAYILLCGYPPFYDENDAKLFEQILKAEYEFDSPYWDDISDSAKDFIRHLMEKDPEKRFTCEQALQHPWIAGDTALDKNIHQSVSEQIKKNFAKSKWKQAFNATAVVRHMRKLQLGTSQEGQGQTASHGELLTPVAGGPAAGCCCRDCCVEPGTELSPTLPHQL
Source text: as §1

MLK3 = MLK3 (Homo sapiens, UniProt Q16584); assay: Kinase profiling MLK3; settings: 100 micromolar inhibitor concentration, 100 is no change; for remaining activity at 100 µM: read-out: residual kinase activity, MLK3
Sequence of MLK3 (Q16584 whole entry, species assumed): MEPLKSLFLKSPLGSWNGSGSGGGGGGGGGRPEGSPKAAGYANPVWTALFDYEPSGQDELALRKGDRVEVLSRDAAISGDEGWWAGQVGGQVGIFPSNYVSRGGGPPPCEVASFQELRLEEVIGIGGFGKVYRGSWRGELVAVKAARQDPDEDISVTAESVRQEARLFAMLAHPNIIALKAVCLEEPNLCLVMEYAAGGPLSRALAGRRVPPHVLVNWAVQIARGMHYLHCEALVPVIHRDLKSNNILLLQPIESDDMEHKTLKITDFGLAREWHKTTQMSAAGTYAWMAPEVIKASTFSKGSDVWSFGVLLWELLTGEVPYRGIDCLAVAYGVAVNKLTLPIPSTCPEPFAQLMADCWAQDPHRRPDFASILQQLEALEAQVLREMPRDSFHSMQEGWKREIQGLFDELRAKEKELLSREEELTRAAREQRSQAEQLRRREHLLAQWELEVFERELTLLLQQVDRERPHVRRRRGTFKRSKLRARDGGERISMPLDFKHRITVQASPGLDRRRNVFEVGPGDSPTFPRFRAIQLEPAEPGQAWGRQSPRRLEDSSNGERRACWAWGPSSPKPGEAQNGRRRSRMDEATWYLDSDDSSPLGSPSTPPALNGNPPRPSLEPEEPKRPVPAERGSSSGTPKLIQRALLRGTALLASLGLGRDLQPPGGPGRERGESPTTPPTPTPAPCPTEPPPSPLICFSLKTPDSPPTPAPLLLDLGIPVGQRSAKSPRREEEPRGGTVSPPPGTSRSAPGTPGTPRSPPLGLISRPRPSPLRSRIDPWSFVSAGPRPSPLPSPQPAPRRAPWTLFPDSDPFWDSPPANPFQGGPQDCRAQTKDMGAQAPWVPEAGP
Source text: as §1

TTK = target: T2, TTK (Homo sapiens, UniProt P33981); assay: Kinase profiling TTK; settings: 100 micromolar inhibitor concentration, 100 is no change; for remaining activity at 100 µM: read-out: residual kinase activity, TTK
T2 sequence (P33981 1-857): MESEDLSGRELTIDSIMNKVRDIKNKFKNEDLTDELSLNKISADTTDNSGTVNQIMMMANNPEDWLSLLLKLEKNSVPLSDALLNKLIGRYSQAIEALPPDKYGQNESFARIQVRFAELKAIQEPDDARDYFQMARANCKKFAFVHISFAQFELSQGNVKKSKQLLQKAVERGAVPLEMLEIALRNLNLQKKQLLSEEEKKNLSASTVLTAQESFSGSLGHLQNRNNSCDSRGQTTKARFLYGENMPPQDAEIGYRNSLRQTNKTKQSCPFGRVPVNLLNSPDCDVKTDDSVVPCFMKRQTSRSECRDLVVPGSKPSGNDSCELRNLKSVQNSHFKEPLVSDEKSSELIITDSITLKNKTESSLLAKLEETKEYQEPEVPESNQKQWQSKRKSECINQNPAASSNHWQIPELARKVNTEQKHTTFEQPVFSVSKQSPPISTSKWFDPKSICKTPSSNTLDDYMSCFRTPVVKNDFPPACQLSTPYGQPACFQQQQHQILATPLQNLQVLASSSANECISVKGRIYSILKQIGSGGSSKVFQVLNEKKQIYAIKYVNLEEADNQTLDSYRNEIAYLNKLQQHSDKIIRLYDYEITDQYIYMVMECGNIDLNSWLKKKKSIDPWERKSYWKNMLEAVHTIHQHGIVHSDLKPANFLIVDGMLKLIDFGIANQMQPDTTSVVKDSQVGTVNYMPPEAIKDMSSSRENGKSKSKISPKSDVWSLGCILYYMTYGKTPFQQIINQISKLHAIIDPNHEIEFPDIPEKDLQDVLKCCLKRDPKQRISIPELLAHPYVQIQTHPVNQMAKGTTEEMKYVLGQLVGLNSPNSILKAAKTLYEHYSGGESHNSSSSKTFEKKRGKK
Source text: as §1

BTK = BTK (Homo sapiens, UniProt Q06187); assay: Kinase profiling BTK; settings: 100 micromolar inhibitor concentration, 100 is no change; for remaining activity at 100 µM: read-out: residual kinase activity, BTK
Sequence of BTK (Q06187 whole entry, species assumed): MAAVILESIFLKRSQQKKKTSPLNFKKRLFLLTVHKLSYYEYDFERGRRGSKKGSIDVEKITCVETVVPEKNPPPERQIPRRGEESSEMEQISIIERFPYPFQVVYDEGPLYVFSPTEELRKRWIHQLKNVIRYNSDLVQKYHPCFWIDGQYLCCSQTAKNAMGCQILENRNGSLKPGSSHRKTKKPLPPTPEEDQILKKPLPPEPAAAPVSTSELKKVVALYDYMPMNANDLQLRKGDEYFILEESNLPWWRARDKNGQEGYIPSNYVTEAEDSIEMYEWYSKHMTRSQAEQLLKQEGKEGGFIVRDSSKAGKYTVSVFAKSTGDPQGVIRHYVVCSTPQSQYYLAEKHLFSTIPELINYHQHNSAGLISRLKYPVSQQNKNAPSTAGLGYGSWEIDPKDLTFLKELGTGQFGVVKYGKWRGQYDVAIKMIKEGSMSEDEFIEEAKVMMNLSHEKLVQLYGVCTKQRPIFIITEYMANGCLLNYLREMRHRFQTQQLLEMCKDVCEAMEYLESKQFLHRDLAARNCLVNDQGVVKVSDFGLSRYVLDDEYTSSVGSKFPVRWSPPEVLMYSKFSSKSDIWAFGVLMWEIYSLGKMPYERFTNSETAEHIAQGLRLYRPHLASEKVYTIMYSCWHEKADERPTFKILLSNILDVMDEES
Source text: as §1

JAK2 = JAK2 (Homo sapiens, UniProt O60674); assay: Kinase profiling JAK2; settings: 100 micromolar inhibitor concentration, 100 is no change; for remaining activity at 100 µM: read-out: residual kinase activity, JAK2
Sequence of JAK2 (O60674 whole entry, species assumed): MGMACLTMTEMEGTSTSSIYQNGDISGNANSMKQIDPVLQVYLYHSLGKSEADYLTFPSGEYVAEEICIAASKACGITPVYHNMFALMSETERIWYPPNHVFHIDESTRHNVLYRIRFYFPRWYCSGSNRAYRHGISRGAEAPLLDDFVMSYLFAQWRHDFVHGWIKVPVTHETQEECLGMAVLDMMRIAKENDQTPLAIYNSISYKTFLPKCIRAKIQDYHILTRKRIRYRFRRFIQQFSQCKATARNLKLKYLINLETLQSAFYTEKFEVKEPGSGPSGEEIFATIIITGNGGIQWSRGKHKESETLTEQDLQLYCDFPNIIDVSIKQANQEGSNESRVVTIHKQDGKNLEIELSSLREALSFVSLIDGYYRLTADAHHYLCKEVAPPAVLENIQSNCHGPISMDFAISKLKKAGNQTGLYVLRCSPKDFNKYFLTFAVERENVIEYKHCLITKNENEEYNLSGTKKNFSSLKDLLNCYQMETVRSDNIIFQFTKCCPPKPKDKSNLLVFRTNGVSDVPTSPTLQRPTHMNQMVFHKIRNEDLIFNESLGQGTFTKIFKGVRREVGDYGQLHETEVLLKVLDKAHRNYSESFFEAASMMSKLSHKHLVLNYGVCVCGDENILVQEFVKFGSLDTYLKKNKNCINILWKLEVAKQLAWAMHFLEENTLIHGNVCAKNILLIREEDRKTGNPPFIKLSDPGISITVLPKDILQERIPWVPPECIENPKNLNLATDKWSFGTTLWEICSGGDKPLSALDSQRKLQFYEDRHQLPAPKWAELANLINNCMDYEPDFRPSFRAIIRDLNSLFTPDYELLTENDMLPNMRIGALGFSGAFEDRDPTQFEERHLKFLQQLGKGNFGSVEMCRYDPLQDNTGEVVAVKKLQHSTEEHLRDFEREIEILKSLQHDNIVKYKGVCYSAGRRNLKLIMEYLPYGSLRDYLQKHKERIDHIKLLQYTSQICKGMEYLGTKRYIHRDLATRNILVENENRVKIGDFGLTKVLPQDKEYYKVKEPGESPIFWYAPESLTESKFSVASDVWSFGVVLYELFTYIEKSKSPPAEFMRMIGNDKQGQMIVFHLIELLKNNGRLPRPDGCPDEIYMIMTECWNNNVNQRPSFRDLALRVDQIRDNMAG
Source text: as §1

IGF-1R = IGF-1R (Homo sapiens, UniProt P08069); assay: Kinase profiling IGF-1R; settings: 100 micromolar inhibitor concentration, 100 is no change; for remaining activity at 100 µM: read-out: residual kinase activity, IGF-1R
Sequence of IGF-1R (P08069 31-1367, species assumed): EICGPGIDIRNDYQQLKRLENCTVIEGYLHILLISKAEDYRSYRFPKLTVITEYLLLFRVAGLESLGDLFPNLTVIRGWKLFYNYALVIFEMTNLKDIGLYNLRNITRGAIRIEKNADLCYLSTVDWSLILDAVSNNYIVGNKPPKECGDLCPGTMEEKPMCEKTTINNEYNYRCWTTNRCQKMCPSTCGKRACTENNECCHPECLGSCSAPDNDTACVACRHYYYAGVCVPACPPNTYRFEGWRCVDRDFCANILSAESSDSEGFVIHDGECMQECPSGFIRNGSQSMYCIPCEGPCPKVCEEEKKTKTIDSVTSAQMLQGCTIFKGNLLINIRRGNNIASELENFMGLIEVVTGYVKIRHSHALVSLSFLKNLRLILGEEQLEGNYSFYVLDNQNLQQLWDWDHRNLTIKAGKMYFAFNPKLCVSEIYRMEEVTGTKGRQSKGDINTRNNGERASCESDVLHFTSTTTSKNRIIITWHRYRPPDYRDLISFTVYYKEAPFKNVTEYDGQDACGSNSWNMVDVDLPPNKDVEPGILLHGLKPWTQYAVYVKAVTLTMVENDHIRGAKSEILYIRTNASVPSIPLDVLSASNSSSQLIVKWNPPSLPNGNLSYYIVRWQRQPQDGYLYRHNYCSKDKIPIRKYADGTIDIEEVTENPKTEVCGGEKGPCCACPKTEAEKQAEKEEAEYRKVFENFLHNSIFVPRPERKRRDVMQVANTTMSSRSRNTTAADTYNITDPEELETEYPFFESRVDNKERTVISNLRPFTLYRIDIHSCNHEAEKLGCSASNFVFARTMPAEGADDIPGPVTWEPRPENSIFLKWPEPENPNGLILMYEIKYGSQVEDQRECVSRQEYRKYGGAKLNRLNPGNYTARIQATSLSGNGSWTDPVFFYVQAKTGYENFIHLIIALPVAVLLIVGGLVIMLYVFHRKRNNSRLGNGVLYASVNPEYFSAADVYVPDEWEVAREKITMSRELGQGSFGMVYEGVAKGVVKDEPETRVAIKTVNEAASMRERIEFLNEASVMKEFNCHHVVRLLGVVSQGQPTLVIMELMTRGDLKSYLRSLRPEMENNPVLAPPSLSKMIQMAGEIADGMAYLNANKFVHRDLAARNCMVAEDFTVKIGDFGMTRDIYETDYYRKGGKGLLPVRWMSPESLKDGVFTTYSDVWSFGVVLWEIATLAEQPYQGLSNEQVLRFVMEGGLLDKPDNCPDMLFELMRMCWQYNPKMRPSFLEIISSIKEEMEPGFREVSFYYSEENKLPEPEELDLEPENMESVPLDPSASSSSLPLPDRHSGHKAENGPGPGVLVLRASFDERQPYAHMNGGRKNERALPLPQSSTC
Source text: as §1

Compound | residual kinase activity, MKK6 (MKK6) | residual kinase activity, p38a MAPK (p38a MAPK) | residual kinase activity, RSK1 (RSK1) | residual kinase activity, PKBa (PKBa) | residual kinase activity, S6K1 (S6K1) | residual kinase activity, PKA (PKA) | residual kinase activity, STK33 (STK33) | residual kinase activity, CAMKKb (CAMKKb) | residual kinase activity, CAMK1 (CAMK1) | residual kinase activity, MLK3 (MLK3) | residual kinase activity, TTK (TTK) | residual kinase activity, BTK (BTK) | residual kinase activity, JAK2 (JAK2) | residual kinase activity, IGF-1R (IGF-1R) | remaining activity at 100 µM (MKK6) [%] | remaining activity at 100 µM (p38a MAPK) [%] | remaining activity at 100 µM (RSK1) [%] | remaining activity at 100 µM (PKBa) [%] | remaining activity at 100 µM (S6K1) [%] | remaining activity at 100 µM (PKA) [%] | also measured
O=C(Nc1nc2cc(O)ccc2s1)c1cccnc1 [Compound 03-33] | 122 | 105 | 73 | 100 | 75 | 102 | 70 | 69 | 104 | 48 | 45 | 110 | 70 | 50 | – | – | – | – | – | – | –
O=C(Nc1nc2ccc(O)cc2s1)c1ccccc1 [Compound 03-60] | 109 | 74 | 28 | 79 | 11 | 97 | 38 | 37 | 22 | 5 | 19 | 59 | 36 | 18 | – | – | – | – | – | – | –
CC(=O)Nc1nc2ccc(C(F)(F)F)cc2s1 [Compound 01-90] | – | – | – | – | – | – | – | – | – | – | – | – | – | – | 85 | 106 | 74 | 104 | 85 | 87 | remaining activity at 100 µM (STK33): 46%; remaining activity at 100 µM (CAMKKb): 29%; remaining activity at 100 µM (CAMK1): 64%; remaining activity at 100 µM (MLK3): 51%; remaining activity at 100 µM (TTK): 49%; remaining activity at 100 µM (BTK): 73%; remaining activity at 100 µM (JAK2): 73%; remaining activity at 100 µM (IGF-1R): 84%
O=C(Nc1nc2ccc(O)cc2s1)c1ccncc1 [Compound 08-42] | 101 | 99 | 47 | 90 | 38 | 91 | 67 | 68 | 68 | 30 | 32 | 59 | 50 | 88 | – | – | – | – | – | – | –
O=C(Nc1nc2cc(O)ccc2s1)c1ccccn1 [Compound 03-13] | 105 | 96 | 70 | 107 | 71 | 102 | 71 | 69 | 111 | 57 | 53 | 90 | 98 | 84 | – | – | – | – | – | – | –
COc1ccc2sc(NC(C)=O)nc2c1 [Compound 03-21] | – | – | – | – | – | – | – | – | – | – | – | – | – | – | 117 | 96 | 93 | 91 | 63 | 11 | remaining activity at 100 µM (STK33): 81%; remaining activity at 100 µM (CAMKKb): 87%; remaining activity at 100 µM (CAMK1): 81%; remaining activity at 100 µM (MLK3): 59%; remaining activity at 100 µM (TTK): 67%; remaining activity at 100 µM (BTK): 102%; remaining activity at 100 µM (JAK2): 88%; remaining activity at 100 µM (IGF-1R): 78%
CC(=O)Nc1nc2ccc(C#N)cc2s1 [Compound 01-94] | – | – | – | – | – | – | – | – | – | – | – | – | – | – | 98 | 102 | 51 | 95 | 73 | 93 | remaining activity at 100 µM (STK33): 35%; remaining activity at 100 µM (CAMKKb): 35%; remaining activity at 100 µM (CAMK1): 80%; remaining activity at 100 µM (MLK3): 55%; remaining activity at 100 µM (TTK): 33%; remaining activity at 100 µM (BTK): 98%; remaining activity at 100 µM (JAK2): 33%; remaining activity at 100 µM (IGF-1R): 78%
CC(=O)Nc1nc2ccc(O)cc2s1 [Compound 01-71] | – | – | – | – | – | – | – | – | – | – | – | – | – | – | 78 | 86 | 25 | 87 | 23 | 70 | remaining activity at 100 µM (STK33): 41%; remaining activity at 100 µM (CAMKKb): 57%; remaining activity at 100 µM (CAMK1): 52%; remaining activity at 100 µM (MLK3): 15%; remaining activity at 100 µM (TTK): 31%; remaining activity at 100 µM (BTK): 69%; remaining activity at 100 µM (JAK2): 43%; remaining activity at 100 µM (IGF-1R): 18%
O=C(Nc1nc2cc(O)ccc2s1)c1ccncc1 [Compound 03-11] | 101 | 106 | 83 | 88 | 83 | 110 | 77 | 88 | 85 | 95 | 74 | 107 | 66 | 107 | – | – | – | – | – | – | –
